Results on 16 compounds are retold here after patent US8962608B2, “Cycloalkylnitrile pyrazole carboxamides as janus kinase inhibitors” (Merck Sharp & Dohme Corp., priority 2011, dated 2015).

Assay [1] has as its target JAK2 (recombinant purified GST-tagged catalytic domain) (Homo sapiens (Human), UniProt O60674). The assay can be described thus: biochemical.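 Also: biochemical JAK kinase assay with HTRF detection.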
For assay [2], the target named is JAK1 (recombinant purified GST-tagged catalytic domain) (Homo sapiens (Human), UniProt P23458). The assay can be described thus: biochemical.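 Also: biochemical assay with HTRF read-out.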
JAK1 (recombinant purified GST-tagged catalytic domain), sequence (P23458 875-1153): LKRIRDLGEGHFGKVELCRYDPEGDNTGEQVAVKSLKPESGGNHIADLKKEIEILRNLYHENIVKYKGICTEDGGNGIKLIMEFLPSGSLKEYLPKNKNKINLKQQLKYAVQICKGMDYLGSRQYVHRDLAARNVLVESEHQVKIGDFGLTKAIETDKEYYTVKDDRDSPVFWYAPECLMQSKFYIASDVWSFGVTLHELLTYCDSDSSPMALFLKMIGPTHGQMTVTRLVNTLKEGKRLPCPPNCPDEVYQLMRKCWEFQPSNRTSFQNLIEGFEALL

Molecules are shown by their SMILES.

JAK2 (recombinant purified GST-tagged catalytic domain), sequence (O60674 849-1124): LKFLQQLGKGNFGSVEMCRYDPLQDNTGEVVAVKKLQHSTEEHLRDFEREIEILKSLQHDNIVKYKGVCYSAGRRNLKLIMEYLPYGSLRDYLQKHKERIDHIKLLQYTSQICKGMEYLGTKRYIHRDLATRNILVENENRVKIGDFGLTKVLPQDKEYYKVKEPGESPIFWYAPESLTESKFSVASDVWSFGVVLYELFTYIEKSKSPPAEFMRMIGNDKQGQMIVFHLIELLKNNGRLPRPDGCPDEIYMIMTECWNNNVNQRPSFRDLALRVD

With `CN[C@@H]1CC[C@H](n2cc(C(N)=O)c(Nc3ccc(Cl)cc3)n2)[C@@H](C#N)C1` (single isomer, unassigned) [Example 28-42, 3-[(4-chlorophenyl)amino]-1-[(1S,2S,4R or 1R,2R,4S)-2-cyano-4-(methylamino)cyclohexyl]-1H-pyrazole-4-carboxamide], the IC50 in assay [1] is 36 nM; in assay [2], 2 nM.

As to `C[C@H](N[C@@H]1CC[C@H](n2cc(C(N)=O)c(Nc3ccc(Cl)c(F)c3)n2)[C@@H](C#N)C1)C1CC1` (single isomer, unassigned) [Example 28-48, 3-[(4-chloro-3-fluorophenyl)amino]-1-[(1S,2S,4R or 1R,2R,4S)-2-cyano-4-{[(1S or 1R)-1-cyclopropylethyl]amino}cyclo-hexyl]-1H-pyrazole-4-carboxamide], the results for the IC50 in assay [1] and in assay [2] were 215 nM and 8 nM, respectively.

Turning to `N#C[C@H]1C[C@H](N2CCC2)CC[C@@H]1n1cc(C(N)=O)c(Nc2ccc(C(F)F)nc2)n1` (single isomer, unassigned) [Example 28-50, 1-[(1S,2S,4R or 1R,2R,4S)-4-azetidin-1-yl-2-cyanocyclohexyl]-3-{[6-(difluoromethyl)pyridin-3-yl]amino}-1H-pyrazole-4-carboxamide], the IC50 turned out to be 47 nM in assay [1] and 2 nM in assay [2].

Turning to `CC(C)(C)N[C@@H]1CC[C@H](n2cc(C(N)=O)c(Nc3ccc([C@H](O)C(F)(F)F)cc3)n2)[C@@H](C#N)C1` (single isomer, unassigned) [Example 28-52, 1-[(1S,2S,4R or 1R,2R,4S)-4-(tert-butylamino)-2-cyanocyclohexyl]-3-({4-[(1S or 1R)-2,2,2-trifluoro-1-hydroxyethyl]phenyl}amino)-1H-pyrazole-4-carboxamide], the half-inhibitory concentration (IC50) in assay [1] amounted to 23 nM; in assay [2] it was 0.4 nM.

For the compound `C[C@H](N[C@@H]1CC[C@H](n2cc(C(N)=O)c(Nc3ccc(OC(F)(F)F)cc3)n2)[C@@H](C#N)C1)C1CC1` (single isomer, unassigned) [Example 28-55, 1-[(1S,2S,4R or 1R,2R,4S)-2-cyano-4-{[(1S)-1-cyclopropylethyl]amino}cyclo-hexyl]-3-{[4-(trifluoromethoxy)phenyl]amino}-1H-pyrazole-4-carboxamide], the concentration for half-maximal inhibition (IC50) in assay [1] is 200 nM; in assay [2] it was 4 nM.

As to `N#C[C@H]1C[C@@H](N2CCC2)CC[C@@H]1n1cc(C(N)=O)c(Nc2ccc(OC(F)(F)F)cc2)n1` (single isomer, unassigned) [Example 28-58, 1-[(1S,2S,4S or 1R,2R,4R)-4-azetidin-1-yl-2-cyanocyclohexyl]-3-{[4-(trifluoromethoxy)phenyl]amino}-1H-pyrazole-4-carboxamide], the 50% inhibitory concentration (IC50) in assay [1] was determined as 23 nM; in assay [2], 0.7 nM.

As to `N#C[C@H]1C[C@H](N2CCC2)CC[C@@H]1n1cc(C(N)=O)c(Nc2ccc(OC(F)(F)F)cc2)n1` (single isomer, unassigned) [Example 28-70, 1-[(1S,2S,4R or 1R,2R,4S)-4-azetidin-1-yl-2-cyanocyclohexyl]-3-{[4-(trifluoromethoxy)phenyl]amino}-1H-pyrazole-4-carboxamide], the half-maximal inhibitory concentration (IC50) in assay [1] came to 40 nM; in assay [2], 2 nM.

As to `C[C@H](N[C@H]1CC[C@H](n2cc(C(N)=O)c(Nc3ccc(Cl)c(F)c3)n2)[C@@H](C#N)C1)C1CC1` (single isomer, unassigned) [Example 28-71, 3-[(4-chloro-3-fluorophenyl)amino]-1-[(1S,2S,4S or 1R,2R,4R)-2-cyano-4-{[(1S or 1R)-1-cyclopropylethyl]amino}cyclo-hexyl]-1H-pyrazole-4-carboxamide], the IC50 in assay [1] is 97 nM; in assay [2], 2 nM.

For the compound `N#C[C@H]1C[C@H](NC2COC2)CC[C@@H]1n1cc(C(N)=O)c(Nc2ccc(CC(F)(F)F)cc2)n1` (single isomer, unassigned) [Example 28-77, 1-[(1S,2S,4R or 1R,2R,4S)-2-cyano-4-(oxetan-3-ylamino)cyclohexyl]-3-{[4-(2,2,2-trifluoroethyl)phenyl]amino}-1H-pyrazole-4-carboxamide], the IC50 in assay [1] is 4 nM; in assay [2], 0.7 nM.

With `N#C[C@H]1C[C@@H](NC2COC2)CC[C@@H]1n1cc(C(N)=O)c(Nc2ccc(CC(F)(F)F)cc2)n1` (single isomer, unassigned) [Example 28-79, 1-[(1S,2S,4S or 1R,2R,4R)-2-cyano-4-(oxetan-3-ylamino)cyclohexyl]-3-{[4-(2,2,2-trifluoroethyl)phenyl]amino}-1H-pyrazole-4-carboxamide], the values for the IC50 in assay [1] and in assay [2] were 3 nM and 0.3 nM, respectively.

Turning to `CC(=O)c1ccc(Nc2nn([C@H]3CC[C@@H](N4CCC4)C[C@@H]3C#N)cc2C(N)=O)cc1` (single isomer, unassigned) [Example 28-83, 3-[(4-acetylphenyl)amino]-1-[(1S,2S,4R or 1R,2R,4S)-4-azetidin-1-yl-2-cyanocyclohexyl]-1H-pyrazole-4-carboxamide], the half-maximal inhibitory concentration (IC50) was found to be 18 nM in assay [1] and 0.4 nM in assay [2].

As for `CC(=O)c1ccc(Nc2nn([C@H]3CC[C@H](N4CCC4)C[C@@H]3C#N)cc2C(N)=O)cc1` (single isomer, unassigned) [Example 28-84, 3-[(4-acetylphenyl)amino]-1-[(1S,2S,4S or 1R,2R,4R)-4-azetidin-1-yl-2-cyanocyclohexyl]-1H-pyrazole-4-carboxamide], the half-maximal inhibitory concentration (IC50) in assay [1] was determined as 9 nM; in assay [2], 0.3 nM.

`N#C[C@H]1C[C@@H](NCC(F)F)CC[C@@H]1n1cc(C(N)=O)c(Nc2ccc(Cl)c(F)c2)n1` (single isomer, unassigned) [Example 28-90, 3-[(4-chloro-3-fluorophenyl)amino]-1-{(1S,2S,4S or 1R,2R,4R)-2-cyano-4-[(2,2-difluoroethyl)amino]cyclohexyl}-1H-pyrazole-4-carboxamide]: the IC50 in assay [1] stood at 35 nM; in assay [2], 4 nM.

As to `C[C@H](N[C@H]1CC[C@H](n2cc(C(N)=O)c(Nc3ccc(OC(F)(F)F)cc3)n2)[C@@H](C#N)C1)C1CC1` (single isomer, unassigned) [Example 28-91, 1-[(1S,2S,4S or 1R,2R,4R)-2-cyano-4-{[(1S)-1-cyclopropylethyl]amino}cyclo-hexyl]-3-{[4-(trifluoromethoxy)phenyl]amino}-1H-pyrazole-4-carboxamide], the figures for the 50% inhibitory concentration (IC50) in assay [1] and in assay [2] were 65 nM and 1 nM, respectively.

As for `CC1CN([C@H]2CC[C@H](n3cc(C(N)=O)c(Nc4ccc(Cl)cc4)n3)[C@@H](C#N)C2)C1` (single isomer, unassigned) [Example 28-96, 3-[(4-chlorophenyl)amino]-1-[(1S,2S,4S or 1R,2R,4R)-2-cyano-4-(3-methylazetidin-1-yl)cyclohexyl]-1H-pyrazole-4-carboxamide], the concentration for half-maximal inhibition (IC50) in assay [1] was 85 nM; in assay [2], 2 nM.

`N#C[C@H]1C[C@@H](NCc2ccccc2)CC[C@@H]1n1cc(C(N)=O)c(Nc2ccnc(F)c2)n1` (single isomer, unassigned) [Example 28-97, 1-[(1S,2S,4S or 1R,2R,4R)-4-(benzylamino)-2-cyanocyclohexyl]-3-[(2-fluoropyridin-4-yl)amino]-1H-pyrazole-4-carboxamide]: the results for the half-maximal inhibitory concentration (IC50) in assay [1] and in assay [2] were 9 nM and 0.3 nM, respectively.
